US12391695B2, “PRMT5 inhibitors” (Lupin Limited, priority 2019, dated 2025)
Like-named read-outs stand apart in the source and are kept apart here.

Assays:
PRMT5:MEP50 = PRMT5:MEP50 (Homo sapiens, UniProt O14744); assay: PRMT5 biochemical assay (HTRF, biotinylated H4R3 substrate), protocols 1 and 2; details: 1 μM SAM, 50 nM biotinylated H4R3, protocol 1 or 2 not given, read-out: IC50 (activity range), inhibition of PRMT5
Description: (§1) Inhibitory effect of compounds on PRMT5 was assessed using HTRF detection technology in biochemical assay. Biotinylated H4R3 (residues 1-21) was used as a substrate. Compounds were pre-incubated with 15-25 ng PRMT5:MEP50 per well of a 384-well plate for 30 min at room temperature in the assay buffer containing 20 mM Bicine, pH 7.6, 25 mM NaCl, 2 mM DTT, 0.01% Chicken albumin and 0.01% Tween-20. Reaction was initiated by adding 1 μM of SAM and 50 nM biotinylated H4R3. Total assay volume was 15 μL. Reaction was continued for 120 min at room temperature. Then detection solution containing Streptavidin-Eu cryptate, anti-rabbit IgG-XL-665, Histone H4R3 Dimethyl Symmetric (H4R3me2s) Polyclonal Antibody, all prepared in HTRF detection buffer was added and further incubated for 30 min at room temperature. HTRF signal was recorded in PHERAStar microplate reader. Ratio of signal obtained at 665 nm and 620 nm was used to compute the percent inhibition of compound as follows % Inhibition=100−((Test Ratio−Negative control Ratio)/(Positive control Ratio−Negative control Ratio)*100) where Positive control=PRMT5+SAM+H4R3 Negative control=PRMT5+H4R3 Biochemical Assay Protocol 2
as §1, with “2.5” for “15-25”, “4 h” for “120 min”, “control=PRMT5+H4R3” for “control=PRMT5+H4R3 Biochemical Assay Protocol 2”

SDMA = SDMA inhibition assay in Z-138 cells (ELISA with anti-SDMA antibody); assay type: cell-based; details: Homo sapiens, Z-138, 48 h, 48 h treatment
Description: Z-138 cells (ATCC, CRL-3001™) were seeded at a density of 1 million cells/well in transparent, flat bottomed tissue culture grade 48-well plates. Cells were treated with various concentration of test compounds for a period of 48 h. Cell lysate was prepared using 1× CST Lysis buffer (Cell Signaling Technology, USA) and 500 ng/well/50 μL of lysate in pH 9.6 carbonate buffer was coated on 96-well Maxisorb plate and incubated overnight at 4° C. The plate was washed twice in 1×PBS containing 0.05% Tween 20 and blocked in 1% BSA for 1 h at ambient temperature. Further, the plate was incubated first with primary antibody (anti-SDMA antibody; CST #13222s) at ambient temperature for 2 h and then with HRP-conjugated secondary antibody at ambient temperature for 1 h with 2 intermittent washing steps in between.
For luminiscence based detection, HRP substrates (substrate A+substrate B in a 1:1 proportion) were added followed by luminiscence reading after 30 min in Synergy™ 2 reader (Biotek, USA).
For absorbance based detection, TMB substrate was added followed by addition of STOP solution (2N H2SO4) post colour development and absorbance (excitation 450 nm and emission 540 nm) was measured in Synergy™ 2 reader (Biotek, USA).
% inhibition of SDMA was calculated relative to the vehicle control samples containing media with 0.1% DMSO alone as per the formula below. (Avg. of Untreated Control−Avg. of Test)×100 Avg. Of Untreated Control
The IC50 values of individual compounds were calculated with Non Linear Regression Analysis using Graph Pad Prism (Graph Pad software, Inc, USA).

Z-138 cells = assay: Anti-cancer assay (Z-138), cell viability by CellTiterGlo; assay type: cell-based; details: Homo sapiens, 96 h treatment, read-out: IC50 (activity range), inhibition of cell viability
Description: Z-138 cells were seeded at a density of 2000-3000 cells per well in culture media (IMDM+10% FBS). PANC-1 (ATCC, CRL-1469™) and MIA PaCa-2 (ATCC, CRL-1420™) cells were seeded at a density of 200-300 cells per well in culture media (DMEM+10% FBS). Cells were seeded in opaque, flat bottomed tissue culture grade 96-well plates and Z-138 cells (suspension) were seeded and treated on the same day with various concentrations of test compounds. PANC-1 and MIA PaCa-2 cells, being adherent, were kept for overnight settlement at standard cell culture conditions (37° C., 5% CO2). On the following day, cells were treated with various concentrations of test compounds. Cells were treated with test compounds for a period of 96 h, 7 days and 10 days, for Z-138 cells, PANC-1 cells and MIA PaCa-2 cells, respectively. Cell viability was assessed using CellTiterGlo™ (Promega, USA) as per manufacturer's instructions. Relative Light Units (RLU) were read in Synergy™ 2 reader (Biotek, USA). The assay measures cellular ATP as an indicator of cell viability. RLU is proportional to the number of viable cells in the respective well. % inhibition of cell viability was calculated relative to the vehicle control samples containing media with 0.1% DMSO alone as per the formula below. (Avg. of Untreated Control−Avg. of Test)×100 Avg. Of Untreated Control
The IC50 values of individual compounds were calculated with Non Linear Regression Analysis using Graph Pad Prism (Graph Pad software, Inc, USA). • Anti-Cancer Assay (Z-138)

[1] = read-out: IC50 (activity range), SDMA inhibition
[2] = range with mixed units pM/nM, units kept in the value

Chain of PRMT5:MEP50 (O14744 whole entry, the tested form may be a part): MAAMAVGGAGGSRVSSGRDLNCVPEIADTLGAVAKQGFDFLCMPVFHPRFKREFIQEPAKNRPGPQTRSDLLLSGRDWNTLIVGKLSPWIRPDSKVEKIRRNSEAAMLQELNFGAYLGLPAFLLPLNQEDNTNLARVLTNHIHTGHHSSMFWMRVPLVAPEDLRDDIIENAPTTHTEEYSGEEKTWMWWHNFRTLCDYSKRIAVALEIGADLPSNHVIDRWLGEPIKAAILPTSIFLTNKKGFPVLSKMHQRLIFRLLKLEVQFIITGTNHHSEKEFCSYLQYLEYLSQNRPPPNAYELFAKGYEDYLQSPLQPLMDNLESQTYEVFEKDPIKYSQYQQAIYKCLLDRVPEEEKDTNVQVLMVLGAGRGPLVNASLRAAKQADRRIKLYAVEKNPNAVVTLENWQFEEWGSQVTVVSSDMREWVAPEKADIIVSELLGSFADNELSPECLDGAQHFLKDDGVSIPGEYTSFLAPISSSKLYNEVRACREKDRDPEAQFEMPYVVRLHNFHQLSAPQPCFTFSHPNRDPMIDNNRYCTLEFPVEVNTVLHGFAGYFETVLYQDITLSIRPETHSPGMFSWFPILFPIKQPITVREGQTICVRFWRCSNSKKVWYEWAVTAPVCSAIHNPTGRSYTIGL
Chain of PRMT5:MEP50 (Q9BQA1 whole entry partner, the tested form may be a part): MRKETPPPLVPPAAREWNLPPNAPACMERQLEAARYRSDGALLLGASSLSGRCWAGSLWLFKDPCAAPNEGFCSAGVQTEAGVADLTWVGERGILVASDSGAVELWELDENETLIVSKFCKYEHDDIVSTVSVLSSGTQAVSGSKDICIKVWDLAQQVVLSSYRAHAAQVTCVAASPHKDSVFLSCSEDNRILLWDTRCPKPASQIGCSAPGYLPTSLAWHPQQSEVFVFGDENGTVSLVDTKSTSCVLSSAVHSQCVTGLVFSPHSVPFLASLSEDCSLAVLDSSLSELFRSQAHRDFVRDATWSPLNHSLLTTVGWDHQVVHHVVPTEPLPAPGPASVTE

Structure (SMILES) | IC50 (PRMT5:MEP50) | IC50 (SDMA; [1]) | IC50 (Z-138 cells) | IC50 (SDMA; [2]) | IC50 (Z-138 cells; [2])
Nc1ccn([C@@H]2C=C(COc3cc(F)c4cc(Cl)c(N)nc4c3)[C@@H](O)[C@H]2O)c(=O)n1 [Compound 16, 4-Amino-1-((1R,4R,5S)-3-(((2-amino-3-chloro-5-fluoroquinolin-7-yl)oxy)methyl)-4,5-dihydroxycyclopent-2-en-1-yl)pyrimidin-2 (1H)-one] | 0.25 to 0.95 nM |  |  |  | 
Nc1cc(=O)n([C@@H]2C=C(COc3cc(F)c4cc(Cl)c(N)nc4c3)[C@@H](O)[C@H]2O)cn1 [Compound 17, 6-amino-3-((1R,4R,5S)-3-(((2-amino-3-chloro-5-fluoroquinolin-7-yl)oxy)methyl)-4,5-dihydroxycyclopent-2-en-1-yl)pyrimidin-4 (3H)-one] | 0.25 to 0.95 nM | 1100 to 50000 pM | > 1000 pM |  | 
Nc1nc2cc(CCC3=C[C@@H](n4ccc5cn6ccnc6nc54)[C@H](O)[C@@H]3O)ccc2cc1Cl [Compound 28, (1S,2R,5R)-3-(2-(2-Amino-3-chloroquinolin-7-yl)ethyl)-5-(8H-imidazo[1,2-a]pyrrolo[2,3-d]pyrimidin-8-yl)cyclopent-3-ene-1,2-diol] | > 0.95 nM |  | > 1000 pM |  | 
CC1Cc2c(F)c(C(F)F)cc(CCC3=C[C@@H](n4ccc5c(N)ncnc54)[C@H](O)[C@@H]3O)c2CN1 (single isomer, unassigned) [Compound 23B] |  | 1100 to 50000 pM | > 1000 pM |  | 
CC1Cc2c(F)c(C(F)F)cc(CCC3=C[C@@H](n4ccc5c(N)ncnc54)[C@H](O)[C@@H]3O)c2CN1 (single isomer, unassigned) [Compound 23A] | 0.25 to 0.95 nM |  |  | 100 to 1000 pM | 
Nc1cnc2ccc(CC[C@@]34C[C@@H]3[C@@H](n3ccc5c(N)ncnc53)[C@H](O)[C@@H]4O)cc2n1 [Compound 4, (1R,2R,3S,4R,5S)-4-(4-Amino-7H-pyrrolo[2,3-d]pyrimidin-7-yl)-1-(2-(3-aminoquinoxalin-6-yl)ethyl)bicyclo[3.1.0]hexane-2,3-diol] | 0.25 to 0.95 nM | 1100 to 50000 pM | > 1000 pM |  | 
Nc1ncnc2c1ccn2[C@@H]1C=C(CCc2cc(C(F)F)c(F)c3c2CNCC3)[C@@H](O)[C@H]1O [Compound 13, (1S,2R,5R)-5-(4-amino-7H-pyrrolo[2,3-d]pyrimidin-7-yl)-3-(2-(6-(difluoromethyl)-5-fluoro-1,2,3,4-tetrahydroisoquinolin-8-yl)ethyl)cyclopent-3-ene-1,2-diol] | 0.25 to 0.95 nM | 1100 to 50000 pM |  |  | 101 to 1000 pM
CC1CNCc2c(CCC3=C[C@@H](n4ccc5c(N)ncnc54)[C@H](O)[C@@H]3O)cc(C(F)F)c(F)c21 (single isomer, unassigned) [Compound 22A] | 0.25 to 0.95 nM | 1100 to 50000 pM | > 1000 pM |  | 
Nc1nc2cc(CCC3=C[C@@H](n4ncc5c4ncn4ccnc54)[C@H](O)[C@@H]3O)cc(F)c2cc1Cl [Compound 29, (1S,2R,5R)-3-(2-(2-Amino-3-chloro-5-fluoroquinolin-7-yl)ethyl)-5-(7H-imidazo[1,2-c]pyrazolo[4,3-e]pyrimidin-7-yl)cyclopent-3-ene-1,2-diol] | > 0.95 nM |  |  |  | 
Cc1ncnc2c1ccn2[C@@H]1C=C(CCc2cc(C(F)F)c(F)c3c2CNCC3)[C@@H](O)[C@H]1O [Compound 15, (1S,2R,5R)-3-(2-(6-(difluoromethyl)-5-fluoro-1,2,3,4-tetrahydroisoquinolin-8-yl)ethyl)-5-(4-methyl-7H-pyrrolo[2,3-d]pyrimidin-7-yl)cyclopent-3-ene-1,2-diol] | 0.25 to 0.95 nM |  |  | 100 to 1000 pM | 101 to 1000 pM
Nc1ncnc2c1ccn2[C@@H]1C=C(CCc2cc(Cl)c(F)c3c2CNCC3)[C@@H](O)[C@H]1O [Compound 20, (1S,2R,5R)-5-(4-amino-7H-pyrrolo[2,3-d]pyrimidin-7-yl)-3-(2-(6-chloro-5-fluoro-1,2,3,4-tetrahydroisoquinolin-8-yl)ethyl)cyclopent-3-ene-1,2-diol] | 0.25 to 0.95 nM | 1100 to 50000 pM | > 1000 pM |  | 
Nc1nc2cc(CC[C@@]34C[C@@H]3[C@@H](n3ccc5c(N)ncnc53)[C@H](O)[C@@H]4O)cnc2cc1Cl [Compound 24, (1R,2R,3S,4R,5S)-1-(2-(6-Amino-7-chloro-1,5-naphthyridin-3-yl)ethyl)-4-(4-amino-7H-pyrrolo[2,3-d]pyrimidin-7-yl)bicyclo[3.1.0]hexane-2,3-diol] | 0.25 to 0.95 nM | 1100 to 50000 pM | > 1000 pM |  | 
Nc1ncnc2c1ccn2[C@@H]1C=C(COc2cc(C(F)F)cc3c2CNCC3)[C@@H](O)[C@H]1O [Compound 7, (1S,2R,5R)-5-(4-amino-7H-pyrrolo[2,3-d]pyrimidin-7-yl)-3-(((6-(difluoromethyl)-1,2,3,4-tetrahydroisoquinolin-8-yl)oxy)methyl)cyclopent-3-ene-1,2-diol] | 0.25 to 0.95 nM | 1100 to 50000 pM | > 1000 pM |  | 
CONc1ncnc2c1ccn2[C@@H]1C=C(CCc2cc(F)c3cc(Cl)c(N)nc3c2)[C@@H](O)[C@H]1O [Compound 30, (1S,2R,5R)-3-(2-(2-Amino-3-chloro-5-fluoroquinolin-7-yl)ethyl)-5-(4-(methoxyamino)-7H-pyrrolo[2,3-d]pyrimidin-7-yl)cyclopent-3-ene-1,2-diol] | 0.25 to 0.95 nM |  |  | 100 to 1000 pM | 
Nc1nc2cc(CCC3=C[C@@H](n4cnc5c(N)ncnc54)[C@H](O)[C@@H]3O)cc(F)c2cc1Cl [Compound 1, (1S,2R,5R)-3-(2-(2-Amino-3-chloro-5-fluoroquinolin-7-yl)ethyl)-5-(6-amino-9H-purin-9-yl)cyclopent-3-ene-1,2-diol] | 0.25 to 0.95 nM |  |  | 100 to 1000 pM | 
Nc1nc2cc(CCC3=C[C@@H](n4ccc5c4ncn4ccnc54)[C@H](O)[C@@H]3O)cc(F)c2cc1Cl [Compound 27, (1S,2R,5R)-3-(2-(2-Amino-3-chloro-5-fluoroquinolin-7-yl)ethyl)-5-(7H-imidazo[1,2-c]pyrrolo[3,2-e]pyrimidin-7-yl)cyclopent-3-ene-1,2-diol] | > 0.95 nM |  | > 1000 pM |  | 
CC1CNCc2c(CCC3=C[C@@H](n4ccc5c(N)ncnc54)[C@H](O)[C@@H]3O)cc(C(F)F)c(F)c21 (single isomer, unassigned) [Compound 22B] |  |  |  | 100 to 1000 pM | 
